These results are taken from patent EP2888233B1, “SUBSTITUTED 6-AMINO-NICOTINAMIDES BEARING AN OH-CONTAINING GROUP AS KCNQ2/3 MODULATORS” (Grünenthal GmbH, priority 2012, dated 2013).

The target of one assay is T1, KCNQ2/3 channels (Homo sapiens, UniProt O43525+O43526).
T1 construct: expressed in transfected cells
In words: Fluorescence assay using a voltage sensitive dye (fluorimetry). It is filed as cell-based. The settings on record: for Emax: CHO-K1, CHO-K1 cells expressing KCNQ2/3 channels, read-out: Fluorimetry % efficacy (retigabine = 100%); for Emax / Fluorimetry % efficacy (retigabine = 100%): plateau effect relative to saturated Retigabine (50 µM) = 100%; for EC50 / Fluorimetry % efficacy (retigabine = 100%): CHO-K1 cells expressing KCNQ2/3 channels; for EC50: voltage-sensitive dye, KCl depolarization, read-out: Fluorimetry EC50 / IC50. An excerpt: Method I. Fluorescence assay using a voltage sensitive dye (fluorimetry)
The modulation of the KCNQ opening state (and consequently the voltage potential of a cell) by test compounds such as compounds according to the present invention results in an increased or reduced amount of a voltage-sensitive dye in the cytoplasm of the cells tested. These voltage-sensitive dyes are fluorescent dyes and, therefore, are forming the link between cell potential influenced by KCNQ modulation and fluorescence intensity. A KCNQ agonist leads to an opening of the channel, potassium and dye efflux, a following hyperpolarization and a reduction of the inner fluorescence intensity in a kinetic protocol. If applying an ion jump by KCl depolarization, KCNQ agonists increase the ΔF/F value. An antagonist performs vice versa, respectively.
The 'fluorimetry EC50' is the half maximum effective concentration (EC50), where the concentration of a drug/compound induces a response halfway between the baseline and maximum plateau effect. In other words, said value represents the concentration of a compound, where 50% of its maximal effect in the fluorimetric assay is observed if the substance concentration is graphed against the corresponding ΔF/F values (for which the calculation method is described below). Therefore, 'fluorimetry EC50' is a measure for the compound potency. The compound efficacy is mirrored by 'fluorimetry % efficacy' ('%Efficacy') and refers to the maximum response achievable by the test compound, i.e. the plateau effect. This drug's plateau effect is related to the plateau effect, which can be achieved by applying a saturated concentration of a reference compound, e.g. Retigabine (50 µM), in independent wells of the same experimental plate or series. A compound showing 100% efficacy is as efficacious as the reference compound (Retigabine) with a saturated concentration.
[…] CHO-K1 cells expressing KCNQ2/3 channels are cultivated adherently at 37°C, 5% CO2 and 95% humidity in cell culture bottles (e.g. 80 cm^2 TC flasks, Nunc) with DMEM-high glucose (Sigma Aldrich, D7777) including 10% FCS (PAN Biotech, e.g. 3302-P270521) or alternatively MEM Alpha Medium (1x, liquid, Invitrogen, #22571), 10% fetal calf serum (FCS) (Invitrogen, #10270-106, heat-inactivated) and the necessary selection antibiotics.
Before being sown out for the measurements, the cells are washed with 1 x DPBS buffer Ca^2+/Mg^2+-free (e.g. Invitrogen, #14190-094) and detached from the bottom of the culture vessel by using Accutase (PAA Laboratories, #L11-007) (incubation with Accutase for 15 min at 37°C). The cell number is determined using a CASY™ cell counter (TCC, Schärfe System). Depending on the optimal density for each individual cell line, 20,000-30,000 cells/well/100 µl are seeded onto 96-well Corning™ CellBIND™ assay plates (Flat Clear Bottom Black Polystyrene Microplates, #3340). Freshly seeded cells are then left to settle for one hour at room temperature, followed by incubation for 24 hours at 37°C, 5% CO2 and 95% humidity.
The voltage-sensitive fluorescent dye from the Membrane Potential Assay Kit (Red™ Bulk format part R8123 for FLIPR, MDS Analytical Technologies™) is prepared by dissolving the contents of one vessel Membrane Potential Assay Kit Red Component A in 200 ml of extracellular buffer (ES buffer, 120 mM NaCl, 1 mM KCI, 10 mM HEPES, 2 mM CaCl2, 2 mM MgCl2, 10 mM glucose; pH 7.4). After removal of the nutrient medium, the cells are washed once with 200 µl of ES buffer, then loaded for 45 min at room temperature in 100 µl of dye solution in the dark.
Fluorescence measurements are carried out in a BMG Labtech FLUOstar™, BMG Labtech NOVOstar™ or BMG Labtech POLARstar™ instrument (525 nm excitation, 560 nm emission, Bottom Read mode). […]

Assay [1] deals with withdrawal reflex of the rat tail (tail flick). In words: Low-intensity tail flick test (rat). Format: in vivo, Male Sprague-Dawley rats. The settings on record: MPE [%] at dose 10 mg/kg, dose printed in brackets in the cell. As for the experimental part: Method II. Low-intensity tail flick test (rat)
In the low-intensity tail flick test, the determination of the antinociceptive effect of the compounds according to the invention towards an acute noxious thermal stimulus is carried out by measuring the withdrawal reflex of the rat tail (tail flick) in response to a radiant heat beam (analgesia meter; model 2011 of the company Rhema Labortechnik, Hofheim, Germany) according to the method described by D'Amour and Smith (J. Pharm. Exp. Ther. 72, 74 79 (1941). To this end, the rats were placed in a plexiglas restrainer, and a low-intensity radiant heat beam (48°C) was focused onto the dorsal surface of the tail root. […] Before administration of a compound according to the invention, the animals were pre-tested twice in the course of five minutes and the mean of these measurements was calculated as the pre-test mean. The antinociceptive effect was determined at 20, 40 and 60 min after peroral compound administration. The antinociceptive effect was calculated based on the increase in the tail withdrawal latency according to the following formula and is expressed as percentage of the maximum possible effect (MPE [%]): MPE = [(T1−T0)/(T2−T0)]*100 [formula] […]
(Hot-plate and tail-flick tests time the reaction to a heat stimulus.)

Consider `Cc1cc(N2CCOCC2)nc(C2CC2)c1C(=O)NCCC(O)C(C)(C)C` (single isomer, unassigned) [Example 1a, 2-cyclopropyl-N-(3-hydroxy-4,4-dimethyl-pentyl)-4-methyl-6-morpholin-4-yl-pyridine-3-carboxylic acid amide], for which, on KCNQ2/3 channels, the Emax came to 242% and the EC50 turned out to be 961 nM.

Turning to `Cc1cc(N2CCOCC2)nc(C2CC2)c1C(=O)NCCC(O)C(C)(C)C` (single isomer, unassigned) [Example 1b, 2-cyclopropyl-N-(3-hydroxy-4,4-dimethyl-pentyl)-4-methyl-6-morpholin-4-yl-pyridine-3-carboxylic acid amide], at KCNQ2/3 channels, the “Fluorimetry % efficacy (retigabine = 100%)” value (from here on “Fluorimetry % efficacy”) turned out to be 224% and the EC50 worked out at 318 nM. Also, in assay [1], the “Low intensity tail flick, rat, peroral, ED50 or MPE (dose)” value is listed as 100 (10) %.

As to `Cc1cc(N2CCOCC2)nc(C(C)C)c1C(=O)NCCC(O)C(C)(C)C` (single isomer, unassigned) [Example 5a, N-(3-hydroxy-4,4-dimethyl-pentyl)-2-isopropyl-4-methyl-6-morpholin-4-yl-pyridine-3-carboxylic acid amide], at KCNQ2/3 channels, the Emax came to 239% and the EC50 is 431 nM.

As for `Cc1cc(N2CCOCC2)nc(C(C)C)c1C(=O)NCCC(O)C(C)(C)C` (single isomer, unassigned) [Example 5b, N-(3-hydroxy-4,4-dimethyl-pentyl)-2-isopropyl-4-methyl-6-morpholin-4-yl-pyridine-3-carboxylic acid amide], at KCNQ2/3 channels, the “Fluorimetry % efficacy” value was 239% and the EC50 worked out at 94 nM.

With `Cc1cc(N2CCOCC2)nc(C(C)C)c1C(=O)NCCC(O)C(F)(F)F` (single isomer, unassigned) [Example 6a, 2-Isopropyl-4-methyl-6-morpholin-4-yl-N-(4,4,4-trifluoro-3-hydroxy-butyl)-pyridine-3-carboxylic acid amide], at KCNQ2/3 channels, the “Fluorimetry % efficacy” value is given as 206% and the EC50 turned out to be 1090 nM.

On to `Cc1cc(N2CCOCC2)nc(C(C)C)c1C(=O)NCCC(O)C(F)(F)F` (single isomer, unassigned) [Example 6b, 2-Isopropyl-4-methyl-6-morpholin-4-yl-N-(4,4,4-trifluoro-3-hydroxy-butyl)-pyridine-3-carboxylic acid amide], for which, on KCNQ2/3 channels, the “Fluorimetry % efficacy” value stood at 149% and the EC50 is 3920 nM.

For `Cc1cc(N2CCOCC2)nc(C2CC2)c1C(=O)NCCC(O)C(C)(C)C` (stereo not shown) [Example 1, 2-Cyclopropyl-N-(3-hydroxy-4,4-dimethyl-pentyl)-4-methyl-6-morpholin-4-yl-pyridine-3-carboxylic acid amide], on KCNQ2/3 channels, the Emax amounted to 237% and the EC50 was found to be 529 nM.

Regarding `Cc1cc(N2CCOCC2)nc(C2CC2)c1C(=O)NC[C@@H]1CCCC[C@H]1O` [Example 2, 2-Cyclopropyl-N-[[(1S,2R)-2-hydroxy-cyclohexyl]-methyl]-4-methyl-6-morpholin-4-yl-pyridine-3-carboxylic acid amide], at KCNQ2/3 channels, the Emax is 245% and the EC50 worked out at 483 nM. In addition, the “Low intensity tail flick, rat, peroral, ED50 or MPE (dose)” value in assay [1] is 67 (10) %.

As to `Cc1cc(N2CCOCC2)nc(C2CC2)c1C(=O)NC[C@H]1CCCC[C@@H]1O` [Example 3, 2-Cyclopropyl-N-[[(1R,2S)-2-hydroxy-cyclohexyl]-methyl]-4-methyl-6-morpholin-4-yl-pyridine-3-carboxylic acid amide], on KCNQ2/3 channels, the Emax was 99% and the EC50 came out at 8550 nM.

For `Cc1cc(N2CCOCC2)nc(C(C)C)c1C(=O)NCCC(O)C(C)(C)C` (stereo not shown) [Example 5, N-(3-Hydroxy-4,4-dimethyl-pentyl)-2-isopropyl-4-methyl-6-morpholin-4-yl-pyridine-3-carboxylic acid amide], on KCNQ2/3 channels, the Emax came to 230% and the EC50 was found to be 156 nM.

As to `Cc1cc(N2CCOCC2)nc(C(C)C)c1C(=O)NCCC(O)C(F)(F)F` (stereo not shown) [Example 6, 2-Isopropyl-4-methyl-6-morpholin-4-yl-N-(4,4,4-trifluoro-3-hydroxy-butyl)-pyridine-3-carboxylic acid amide], at KCNQ2/3 channels, the Emax was 150% and the EC50 worked out at 1990 nM.

In the case of `Cc1cc(N2CCOCC2)nc(C(C)C)c1C(=O)NC[C@@H]1CCCC[C@H]1O` [Example 7, N-[[(1S,2R)-2-Hydroxy-cyclohexyl]-methyl]-2-isopropyl-4-methyl-6-morpholin-4-yl-pyridine-3-carboxylic acid amide], at KCNQ2/3 channels, the Emax was 243% and the EC50 came to 185 nM.

Consider `CCOc1nc(N2CCOCC2)cc(C)c1C(=O)NCCC(O)C(C)(C)C` (stereo not shown) [Example 8, 2-Ethoxy-N-(3-hydroxy-4,4-dimethyl-pentyl)-4-methyl-6-morpholin-4-yl-pyridine-3-carboxylic acid amide], for which, at KCNQ2/3 channels, the Emax worked out at 231% and the EC50 was 252 nM.
